Paper PMC11500415, “Chemical inhibition of stomatal differentiation by perturbation of the master-regulatory bHLH heterodimer via an ACT-Like domain” (Nature Communications, 2024)
Where two headings read alike, the source gives them in different places.

Biological target: T1, MUTE_ACTL (Arabidopsis thaliana, UniProt Q9M8K6)
T1 construct: MUTE-ACTL (114-202); made in house; host or cells: E. coli BL21
Assay: BLI direct binding
Parameters: species or system A. thaliana
Settings: for binding to MUTE by BLI (in words): BLI (Supplementary Table 3); for Kd: MUTE_ACTL
Text: A. thaliana SCRM (1-494), ΔNSPCH (98-364), MUTE (1-202), ΔNFAMA (190-414), MUTEΔC (1-114), MUTER133A_R134A, MUTEE162A_E163A, MUTER133A_R134A_E162A_E163A, SCRM-ACTL (405-494), MUTE-ACTL (114-202), SPCH-ACTL (285-364), FAMA-ACTL (306-414), MUTE_ACTLR133A_R134A, MUTE_ACTLE162A_E163A, MUTE_ACTLR133A_R134A_E162A_E163A were cloned into pGEX-4T-1 vector with an N-terminal GST tag and a thrombin cleavage sequence. For protein expression, the constructs were transformed into E. coli strain BL21. For each transformant, a single colony was selected and incubated in 10 ml LB liquid media. The overnight-incubated E. coli suspensions were transferred to 1 L LB medium and incubated at 37 °C for around 2 h until the OD600 reached 0.4–0.6. The isopropyl β-D-1-thiogalactopyranoside ([…] of final concentration) was added to the cultures and the strains were incubated at 22 °C for a further 18 h. GST-fused proteins were purified using glutathione agarose resin. The soluble portion of the cell lysate was loaded onto a GST-Sepharose column. Nonspecifically bound proteins were removed by washing the column with 20 mM Tris pH 8.0, 200 mM NaCl. The bound GST-fused protein was eluted with 10 mm glutathione and 20 mM Tris pH 8.0, 200 mM NaCl. The GST-fused proteins were exchanged with phosphate-buffered saline buffer, and then the solution was treated with 50 μg of thrombin for 10–12 h at 16 ^οC. The GST portion of the protein was cleaved during thrombin digestion, and then the whole solution was reloaded onto the glutathione S-transferase column to obtain pure protein. The purified proteins were further purified by gel filtration on a Superdex-200 (GE) column using fast protein liquid chromatography and phosphate buffer (pH 7.2) as the eluent. The purity of the protein was checked by SDS-PAGE. For detailed lists of oligo DNA and plasmid information, see Supplementary Tables 5, 6, respectively.
The binding affinities of SCRM to MUTE / MUTER133A_R134A / MUTEE162A_E163A / MUTER133A_R134A_E162A_E163A in presence and absence of Stomidazolone (3) and its analogues (AYSJ1059 (5) and AYSJ1061 (6)), and Stomidazolone / AYSJ1059 / AYSJ1061 interactions with GST-tagged SCRM, MUTE, SPCH, FAMA, MUTE ΔACTL, MUTE_ACTL, SCRM_ACTL, SPCH_ACTL and FAMA_ACTL, MUTER133A_134A, MUTEE162A_E163A, MUTER133A_R134A_E162A_E163A were measured using the Octet Red96 system (ForteBio, Pall Life Sciences) following the manufacturer’s protocols. The optical probes coated with anti-GST were first loaded with 500 nM GST tagged proteins before kinetic binding analyses. The experiment was performed in 96-well plates maintained at 30 °C. Each well was loaded with 200 μL reaction volume for the experiment. The binding buffer used in these experiments contained 1× PBS supplemented with 2% DMSO, 0.02% Tween20. […] There was no binding of the analytes to the unloaded probes as shown by the control wells. Binding kinetics to all seven concentrations of the analytes were measured simultaneously using default parameters on the instrument. The data were analyzed using the Octet data analysis software. The association and dissociation curves were fit with the 1:1 homogeneous ligand model. The kobs (observed rate constant) values were used to calculate Kd, with steady-state analysis of the direct binding. See Supplementary Table 3 for details.

[1] = BLI steady state, read-out: KD (SS)

T1 sequence (Q9M8K6 114-202): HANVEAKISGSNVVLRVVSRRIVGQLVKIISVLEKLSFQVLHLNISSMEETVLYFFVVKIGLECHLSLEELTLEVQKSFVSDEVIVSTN

Cc1ccc(C2(NS(=O)(=O)c3ccccc3)N=C(c3ccccc3)C(=O)N2S(=O)(=O)c2ccccc2)cc1 (stereo not drawn) [AYSJ1059]
binding to MUTE by BLI (in words): substantially weak binding | Kd [1]: 126 ± 13.5 µM | Kd (BLI, read-out: KD): 123 ± 6.5 µM

O=C1C(c2ccccc2)=NC(NS(=O)(=O)c2ccccc2)(c2ccc(Br)cc2)N1S(=O)(=O)c1ccccc1 (stereo not drawn) [AYSJ1061]
binding to MUTE by BLI (in words): substantially weak binding | Kd [1]: 139 ± 9.5 µM | Kd (BLI, read-out: KD): 135 ± 5.5 µM
